Assay results reported in patent publication US20250090510A1, “eIF4G1-eIF1 INHIBITORS AND USE THEREOF” (YEDA RESEARCH AND DEVELOPMENT CO. LTD., priority 2022, published 2025).

Assays:
Test in all cases: CellTiter-Glo luminescent cell viability assay
Format in all cases: cell-based
[1] = system: MCF7; settings: breast cancer (MCF7), increasing concentrations, 48 h
Method: (§1) FIGS. 3A-F: i14G1-10 and i14G1-12 inhibit mRNA translation and sensitize cell survival of eIF4G1 and eIF1 depleted cells. (3A) In-vitro translation using rabbit reticulocyte lysate which was pre-incubated with different concentrations of i14G1-10 or i14G1-12 for 10 minutes followed by the addition of capped firefly luciferase mRNA. After 90 minutes at 30° C., the luminescence signal was measured and the IC50 was calculated. The data represents mean±SEM of 6 independent repeats. (3B) HEK293T cells were treated with DMSO (vehicle control), and sub-cytotoxic concentrations of i14G1-10 (20 μM) and i14G1-12 (10 μM) for 3h. Cell lysates were then subjected to sucrose gradient sedimentation to obtain polysome profiles. (3C) HEK293T cells were treated with the indicated concentrations of i14G1-10 and i14G-12 for 3 h, followed by the addition of puromycin (10 μg/ml) for 5 minutes, after which cells were lysed and analyzed by western blot using an anti-puromycin antibody and anti-GAPDH antibody that serves as a loading control. The graph represents the mean±SEM chemiluminescence signal intensity of puromycin labeling normalized to GAPDH of 3 independent experiments. The calculated IC-50 is shown. (3D) HEK293T cells were transfected with either control or eIF4G1 siRNA in the absence or presence of eIF4G1 expression plasmid. As the eIF4G1 siRNA pool is directed against the 3′UTR, which is absent from the eIF4G1 expression plasmid, the exogenous eIF4G1 is resistant to the siRNA. 48 h after transfection, cells were treated with the indicated concentrations of i14G1-10 and i14G-12 for 3 h, followed by a 5 minutes puromycin pulse as described in 3C. The graph represents the mean±SEM chemiluminescence signal intensity of puromycin labeling normalized to GAPDH of 3 independent experiments. The calculated IC-50 is shown. (3E) The graphs represent cell viability of the indicated cell lines in the presence of increasing concentrations of i14G1-10 and i14G1, analyzed by Luminescent Cell Viability Assay. (3F) Pie charts showing the cell cycle distribution of HEK293T cells treated with DMSO, i14G1-10 and i14G1-12.
(§2) The indicated cell lines in 96-well plates were treated with increasing concentrations of i14G1-10 and i14G1-12. After 48 h, cells were subjected to cell viability measurement using CellTiter-Glo Luminescent Assay (Cat no. G7571, Promega).
(§3) This was true in breast cancer (MCF7), lung cancer (A549), colorectal cancer (HCT116), ovarian cancer (OVCAR8) and in a bone cancer sarcoma cell line (U20S). To examine whether the growth defect is associated with cell cycle progression, control and drug treated cells were subjected to DNA staining by propidium iodide and then a flow cytometry analysis to determine their distribution in the sub-G1 (dead cells), G1, S and G2/M phases of the cell cycle.

[2] = system: OVCAR8; settings: ovarian cancer (OVCAR8), increasing concentrations, 48 h
Method: as §1, §2, §3

[3] = system: U20S; settings: bone cancer sarcoma cell line (U20S), increasing concentrations, 48 h
Method: as §1, §2, §3

[4] = system: A549; settings: lung cancer (A549), increasing concentrations, 48 h
Method: as §1, §2, §3

[5] = system: HCT116; settings: colorectal cancer (HCT116), increasing concentrations, 48 h
Method: as §1, §2, §3

Measured: growth/survival

O=C(/C=C/Sc1ccc(C(F)(F)F)cn1)c1ccccc1 [i14G1-10]
inhibited the growth/survival: all assays above

Cn1ccnc1S/C(=C/C=C(C#N)C#N)c1ccc(Cl)cc1 [i14G1-12]
inhibited the growth/survival: all assays above
